Experimental data: patent US6113896A, “Pharmaceutical compositions containing ecotin and homologs thereof” (priority 1994, dated 2000)
Entries after “also recorded” stand apart in the source; their conditions may differ.

How the values were obtained:
[1] = tested on: plasma kallikrein; test: Specificity assay, plasma kallikrein; assay type: biochemical, human; details: for Percent Activity of Kallikrein: 100 nM inhibitor, ~1 h, 10 nM enzyme
Method: (§1) Specificity Assays The following assays were used to test the specificity of ecotin and the M84K and M84R mutants against various proteases. Ecotin, M84K, M84R (100 nM each), or a control blank were incubated at room temperature for ~1 h with each enzyme. The enzymes tested (enzyme concentration, buffer, substrate) were FXa (1.2 nM, Buffer A, 0.7 mM Spectrozyme fXa), thrombin (3.7 nM, Buffer A, 0.7 mM S2366), TF.cndot.FVIIa (12.0 nM, Buffer B, 0.7 mM S2366), FXIa (1.2 nM, Buffer A containing 1 mg/ml BSA, 0.7 mM S2366), activated protein C (4.3 nM, Buffer A, 0.7 mM S2366), plasmin (15 nM, Buffer A, 1 mM S2251), single chain t-PA (15 nM, Buffer A, 2.5 mM S2288), Factor XIIa (10 nM, Buffer A, 0.5 mM S2302, plasma kallikrein (10 nM, Buffer A, 0.5 mM S2302), HLE (17 nM, 0.1 M Tris, pH 7.5, 0.5 M NaCl and 0.005 % Triton X-100, 0.42 mM MeOSuc-AAPV-pNA) (SEQ ID NO:9), bovine trypsin (10 nM, Buffer A, 0.25 mM Spectrozyme fXa), and bovine chymotrypsin (10 nM, Buffer A, 1 mM Suc-AAPF-pNA) (SEQ ID NO:10). Buffer A contains 50 mM Tris, pH 7.5, 100 mM NaCl, 2 mM CaCl2 and 0.005% Triton X-100. Buffer B contains 50 mM Tris, pH 7.5, 100 mM NaCl, 10 mM CaCl2, 0.5% BSA, 60 nM TF1-243,and 1 mM CHAPS. The initial change in absorbance at 405 nm was monitored after addition of substrate. Controls lacking inhibitor and/or enzyme were also assayed to assess the uninhibited rates and the background substrate hydrolysis rates, respectively.

[2] = tested on: bovine chymotrypsin; test: Specificity assay, bovine chymotrypsin; assay type: biochemical; details: for Percent Activity of Chymotrypsin: 100 nM inhibitor, ~1 h, 10 nM enzyme; for inhibition of bovine chymotrypsin, in words: text statement
Method: as §1

[3] = tested on: normal human plasma; test: Prothrombin time (PT) clotting assay; assay type: biochemical; details: initiation by TF
Method: Coagulation assays and Prolongation of Clotting Times Clotting times were performed using the ACL 300 Research Coagulation Analyzer. For the prothrombin time (PT) assays, the incubation time was set at 120 sec and acquisition time at 120 to 600 sec depending on the expected outcome of the assay. Membranes from 293 cells expressing TF (Paborsky, L. R. et al., Biochemistry 28:8072-8077 [1989]) were premixed with CaCl2. The sample (plasma and inhibitor) and reagent (CaCl2 /TF) were automatically mixed together after a 2 min incubation at 37° C. The clotting time was determined by optical assessment. The total incubation time of inhibitor with plasma before addition of CaCl2 /TF was ~5 min. Final concentrations were 78 nM to 7.8 μM ecotin, 3.7 nM TF (0.9 μg/ml by protein content), 22.5 mM CaCl2, and 50% plasma in a total volume of 160 μl.

[4] = tested on: bovine trypsin; test: Specificity assay, bovine trypsin; assay type: biochemical; details: for Percent Activity of Trypsin: 100 nM inhibitor, ~1 h, 10 nM enzyme; for inhibition of bovine trypsin, in words: text statement
Method: as §1

[5] = tested on: Factor XIIa; test: Specificity assay, Factor XIIa; assay type: biochemical, human; details: for Percent Activity of Factor XIIa: 100 nM inhibitor, ~1 h, 10 nM enzyme
Method: as §1

[6] = tested on: activated protein C; test: Specificity assay, activated protein C; assay type: biochemical, human; details: for Percent Activity of Activated protein C: 100 nM inhibitor, ~1 h, 4.3 nM enzyme
Method: as §1

[7] = tested on: thrombin; test: Specificity assay, thrombin; assay type: biochemical, human; details: for Percent Activity of Thrombin: 100 nM inhibitor, ~1 h, 3.7 nM enzyme
Method: as §1

[8] = tested on: FXIa; test: Specificity assay, FXIa; assay type: biochemical, human; details: for Percent Activity of Factor XIa: 100 nM inhibitor, ~1 h, 1.2 nM enzyme
Method: as §1

[9] = tested on: TF·FVIIa; test: Specificity assay, TF·FVIIa; assay type: biochemical, human; details: for Percent Activity of TF/Factor VIIa: 100 nM inhibitor, ~1 h, 12.0 nM enzyme
Method: as §1

[10] = tested on: single chain t-PA; test: Specificity assay, single chain t-PA; assay type: biochemical, human; details: for Percent Activity of t-PA: 100 nM inhibitor, ~1 h, 15 nM enzyme
Method: as §1

[11] = tested on: HLE; test: Specificity assay, HLE; assay type: biochemical, human; details: for Percent Activity of HLE: 100 nM inhibitor, ~1 h, 17 nM enzyme
Method: as §1

[12] = text statement, listed as ecotin

| Substance | Percent Activity of Kallikrein [1] | inhibition of plasma kallikrein, in words ([1]; text statement) | Percent Activity of Chymotrypsin [2] | Percent Activity of Trypsin [4] | Percent Activity of Factor XIIa [5] | inhibition of FXIIa, in words ([5]; text statement) | Percent Activity of Activated protein C [6] | inhibition of activated protein C, in words ([6]; text statement) | Percent Activity of Thrombin [7] | inhibition of thrombin, in words ([7]; text statement) | Percent Activity of Factor XIa [8] | inhibition of FXIa, in words ([8]; text statement) | Percent Activity of TF/Factor VIIa [9] | inhibition of TF·FVIIa, in words ([9]; text statement) | Percent Activity of t-PA [10] | inhibition of t-PA, in words ([10]; text statement) | Percent Activity of HLE [11] | inhibition of HLE, in words ([11]; text statement) | inhibition of bovine chymotrypsin, in words [2] | inhibition of bovine trypsin, in words [4] | other results |
| --- | --- | --- | --- | --- | --- | --- | --- | --- | --- | --- | --- | --- | --- | --- | --- | --- | --- | --- | --- | --- | --- |
| Ecotin: E. coli periplasmic protein having the 142 amino acid residue sequence reported by McGrath et al.; recombinant, P1 Met84 | 0% | potently inhibited | 0% | 0% | 0% | potently inhibited | 99% | did not effectively inhibit | 98% | did not effectively inhibit | 79% | did not effectively inhibit | 99% | did not effectively inhibit | 100% | did not effectively inhibit | 0% | potently inhibited | – | – | concentration causing 10-fold prolongation of clotting time, PT [3]: ~2 μM; concentration causing 10-fold prolongation of clotting time, PT ([3]; listed as Wild type ecotin): ~ 2 μM; inhibition of activated protein C, in words [6, 12]: little or no inhibition; inhibition of thrombin, in words [7, 12]: little or no inhibition; inhibition of FXIa, in words [8, 12]: little or no inhibition; inhibition of TF·FVIIa, in words [9, 12]: little or no inhibition; also recorded: No inhibition; also recorded: does not inhibit; inhibition of t-PA, in words [10, 12]: little or no inhibition; also recorded: No inhibition |
| M84K | 2% | still potently inhibited | 1% | 0% | 0% | still potently inhibited | 65% | significant inhibition | 16% | significant inhibition | 12% | significant inhibition | 92% | Neither ecotin, the M84R or M84K mutants inhibited | 100% | Neither ecotin, the M84R or M84K mutants inhibited | 85% | effectively diminished inhibition; also recorded: no longer inhibited | significantly inhibited | significantly inhibited | inhibition of plasma kallikrein, in words ([1]; listed as P1 Lys mutant): significantly inhibited; inhibition of FXIIa, in words ([5]; listed as P1 Lys mutant): significantly inhibited; inhibition of activated protein C, in words ([6]; listed as P1 Lys mutant): significantly inhibited; inhibition of thrombin, in words ([7]; listed as P1 Lys mutant): significantly inhibited; inhibition of FXIa, in words ([8]; listed as P1 Lys mutant): significantly inhibited; inhibition of TF·FVIIa, in words ([9]; listed as P1 Lys mutant): did not inhibit; inhibition of t-PA, in words ([10]; listed as P1 Lys mutant): did not inhibit; inhibition of HLE, in words ([11]; listed as P1 Lys mutant): did not inhibit |
| M84R | 1% | still potently inhibited | 0% | 0% | 1% | still potently inhibited | 50% | significant inhibition | 4% | significant inhibition | 5% | significant inhibition | 87% | Neither ecotin, the M84R or M84K mutants inhibited | 100% | Neither ecotin, the M84R or M84K mutants inhibited | 88% | effectively diminished inhibition; also recorded: no longer inhibited | significantly inhibited | significantly inhibited | inhibition of plasma kallikrein, in words ([1]; listed as P1 Arg mutant): significantly inhibited; inhibition of FXIIa, in words ([5]; listed as P1 Arg mutant): significantly inhibited; inhibition of activated protein C, in words ([6]; listed as P1 Arg mutant): significantly inhibited; inhibition of thrombin, in words ([7]; listed as P1 Arg mutant): significantly inhibited; inhibition of FXIa, in words ([8]; listed as P1 Arg mutant): significantly inhibited; inhibition of TF·FVIIa, in words ([9]; listed as P1 Arg mutant): did not inhibit; inhibition of t-PA, in words ([10]; listed as P1 Arg mutant): did not inhibit; inhibition of HLE, in words ([11]; listed as P1 Arg mutant): did not inhibit |
